Measurements from patent publication US11801272B2, “Bacillus strains improving health and performance of production animals” (Novozymes A/S, priority 2015, dated 2023).
≈ marks a conversion by molar mass, not a printed value. Read-outs that look alike come from different tables or passages of the source. Where a SMILES comes first, the peptide text is derived from it. Bridges are numbered along the chain shown (N, C = ends). [ ]: non-standard residue; d: D form. The star is where a group is joined. Ileψ(thiazoline)Cys = CC[C@H](C)[C@H](N)C1=N[C@H](C(=O)*)CS1; dOrn = NCCC[C@@H](N)C(=O)O

What was measured:
B. subtilis DSM 29871 = type: cell-based; conditions: Bacillus subtilis
[1] = test system: B. amyloliquefaciens DSM 29869; type: cell-based; conditions: Bacillus amyloliquefaciens, DSM29869, 37° C., 20-24 h
B. subtilis DSM 29870 = type: cell-based; conditions: Bacillus subtilis
Clostridium perfringens = type: in vivo, broiler chickens Cobb×Cobb; conditions: infected, bacitracin 50 ppm
[2] = Trial 1, DSM 29870 1.10^9 CFU/kg of feed
[3] = Trial 3, DSM 29870 5.10^8 CFU/kg of feed

CN[C@H](CC(C)C)C(=O)N[C@H]1C(=O)N[C@@H](CC(N)=O)C(=O)N[C@H]2C(=O)N[C@H]3C(=O)N[C@H](C(=O)N[C@H](C(=O)O)c4cc(O)cc(O)c4-c4cc3ccc4O)[C@H](O)c3ccc(c(Cl)c3)Oc3cc2cc(c3O[C@@H]2O[C@H](CO)[C@@H](O)[C@H](O)[C@H]2O[C@H]2C[C@](C)(N)[C@H](O)[C@H](C)O2)Oc2ccc(cc2Cl)[C@H]1O [Vancomycin]
MIC (B. subtilis DSM 29871; DSM29871, read-out: MIC 1): 0.25 µg/mL (≈ 0.173 µM)
MIC (B. subtilis DSM 29871; DSM29871, read-out: MIC 2): 0.25 µg/mL (≈ 0.173 µM)
MIC (B. subtilis DSM 29871; DSM29871, read-out: MIC 3): 0.25 µg/mL (≈ 0.173 µM)
MIC ([1]; biological replicate 1, read-out: MIC 1): 0.25 µg/mL (≈ 0.173 µM)
MIC ([1]; biological replicate 2, read-out: MIC 2): 0.25 µg/mL (≈ 0.173 µM)
MIC ([1]; biological replicate 3, read-out: MIC 3): 0.25 µg/mL (≈ 0.173 µM)
MIC (B. subtilis DSM 29870; DSM29870, read-out: MIC 1): 0.25 µg/mL (≈ 0.173 µM)
MIC (B. subtilis DSM 29870; DSM29870, read-out: MIC 2): 0.25 µg/mL (≈ 0.173 µM)
MIC (B. subtilis DSM 29870; DSM29870, read-out: MIC 3): 0.25 µg/mL (≈ 0.173 µM)

CC[C@H](C)[C@H](N)C1=N[C@H](C(=O)N[C@@H](CC(C)C)C(=O)N[C@H](CCC(=O)O)C(=O)N[C@H](C(=O)N[C@H]2CCCCNC(=O)[C@H](CC(N)=O)NC(=O)[C@@H](CC(=O)O)NC(=O)[C@H](Cc3cnc[nH]3)NC(=O)[C@@H](Cc3ccccc3)NC(=O)[C@H]([C@@H](C)CC)NC(=O)[C@@H](CCCN)NC2=O)[C@@H](C)CC)CS1 [bacitracin] ({Ileψ(thiazoline)Cys}-L[dE]IK[dOrn]I[dF]H[dD]N; lactam 4-C)
Dead birds with necrotic enteritis lesions (d1-d28) (Clostridium perfringens; [2]): 1.6b %
Total mortality (d1-d28) (Clostridium perfringens; [2]): 5.0b %
Dead birds with necrotic enteritis lesions (d1-d28) (Clostridium perfringens; Trial 2, DSM 29870 5.10^8 CFU/kg of feed): 6.3c %
Dead birds with necrotic enteritis lesions (d1-d28) (Clostridium perfringens; [3]): 4.7bc %
Total mortality (d1-d28) (Clostridium perfringens; [3]): 15.0a %
